What was measured:
[1] = test system: carbonic anhydrase I and/or carbonic anhydrase II; assay: Carbonic anhydrase inhibition; format: biochemical
From the text: Carbonic anhydrase inhibition can be measured using a carbonic anhydrase I assay as described in Katritzky et al. (J. Med. Chem. 1987, 30:2058) and a carbonic anhydrase […] assay as described in lyer et al. (J. Biomol. Screen 2006, 11:782).

[2] = Example 11: Compound 1 (Form A) aqueous suspension SC PK study in monkey; format: in vivo, male cynomolgus monkeys; conditions: 10 mg/kg, following an initial drug burst
Description: An aqueous suspension of Compound 1 free form (Form A) in a 0.9% NaCl+0.5% polysorbate 80 vehicle at a concentration of 3.0 mg/mL was prepared as follows: • 1) Vehicle (0.9% w/w NaCl and 0.5% w/w polysorbate 80) was prepared by dissolving NaCl and polysorbate 80 in water. • 2) Appropriate amount of Compound 1 was weighed and added to the vehicle. • 3) The mixture was stirred for 15 minutes, then vortexed for 1 minute and then sonicated for 10 minutes. • 4) The final dosing formulation was a homogenous white cloudy suspension.
(§1) Male non-naïve Cyno Monkeys with ~4-6 kg body weight were used for the monkey PK study. The animals had free access to food and water. The prepared suspension was administered via subcutaneous injection to each animal group (n=3) with a dosing volume of 3.33 mL/kg to achieve a 10 mg/kg dose.
At each time point, approximately 0.5 mL whole blood was collected via the cephalic and saphenous vein into K2EDTA tubes. Blood samples were put on to ice and centrifuged at 2000 g for 5 min to obtain plasma sample within 15 minutes. Plasma samples were stored at approximately −70° C. until analyzed by LC-MS.

[3] = Injection site observation in Example 10-12 Compound 1 PK studies; format: in vivo, rat, monkey, dog; conditions: SC Compound 1 depot formulations, Examples 10-12, 3 species
Description: The Compound 1 suspension described above was administered via sub-cutaneous injection to each animal group (n=3) with a dosing volume of 3.33 mL/kg to achieve a 10 mg/kg dose.
as §1
Male non-naïve beagles with ~10 kg body weight were used for the dog PK study. The animals had free access to food and water. The prepared suspension was administered via subcutaneous injection to each animal group (n=3) with a dosing volume of 2 mL/kg to achieve a 10 mg/kg dose.

[4] = Example 14: pritelivir SC PK study in dog (solution, micro-suspension, nano-suspension); format: in vivo, male non-naïve Beagle dogs; conditions: 10 mg/kg
Description: The LC-MS methodology and conditions used to analyse pritelivir in dog plasma samples from the PK study described in Example 14 are provided in Table 2.
A solution of pritelivir in 90% NMP (Sigma) and 10% Solutol HS15 (BASF) at a concentration of 100 mg/mL was prepared as follows: • 1) Around 460 mg of crystalline pritelivir free base sesquihydrate (based on assay) was weighed and added to ~3.9 mL of NMP. The mixture was stirred for 10 mins. • 2) After the pritelivir had dissolved, Solutol HS15 (−0.4 mL) was added to the solution and mixed for another 2 mins. • 3) The final dosing formulation was a clear solution.
An aqueous micro-suspension of crystalline pritelivir free base (sesquihydrate) in a 2 mg/mL polysorbate 80 (Tween 80) and 5 mg/mL Methocel A4M vehicle at a concentration of 100 mg/mL was prepared as follows: • 1) Crystalline pritelivir free base (sesquihydrate) was jet milled [grinding pressure […]] to obtain microparticles (Dv90<10 um). • 2) Around 460 mg of jet milled material (based on assay) were then dispersed in a 2 mg/mL polysorbate 80 (Tween 80) and 5 mg/ml Methocel A4M solution (−4.4 mL) to obtain a 100 mg/ml suspension. • 3) The mixture was stirred for 10 minutes. • 4) The final dosing formulation was a homogenous white cloudy suspension.
An aqueous nano-suspension of crystalline pritelivir free base (sesquihydrate) in a 10 mg/mL NaCMC, 2 mg/mL polysorbate 80 (Tween 80) and 50 mg/mL mannitol vehicle at a concentration of 100 mg/mL was prepared as follows: • 1) 10 mg/mL crystalline pritelivir free base (sesquihydrate) was dispersed into a solution of 1 mg/mL NaCMC+0.2 mg/mL polysorbate 80 (Tween 80) and 5 mg/mL mannitol. • 2) The suspension was subjected to high pressure homogenizer (around 20 cycles at 600 bar followed with 130 cycles at 900 bar) until particle size was around 1 μm. • 3) After particle size reduction, the suspension was subjected to freeze drying to obtain a freeze-dried powder. • 4) The freeze-dried powder was reconstituted with water to obtain a 100 mg/ml suspension. • 5) The suspension was wet milled (10:1 0.1 mm zirconium oxide milling beads: pritelivir) at 700 rpm for 500 minutes to reduce particle size to nanosized particles (Dv90<500 nm). • 6) This nanosuspension was subjected to freeze drying to obtain a freeze-dried powder. • 7) Appropriate amounts of freeze-dried powder (based on assay) were weighed and added to water to obtain a 100 mg/ml suspension. • 8) The mixture was stirred for 10 minutes. • 9) The final dosing formulation was a homogenous white cloudy suspension.
Male non-naïve beagles were used for the dog PK study. […]
At each time point, approximately 0.5 mL of whole blood was collected into K2EDTA tubes. […] Plasma samples were stored at approximately −70° C. until analyzed by LC-MS.

genital HSV = conditions: oral, 28 days, cited from earlier work

| prolonged exposure out to [2] | plasma exposure after SC administration ([4]; 0.1 mL/kg, all three formulations (solution, microsuspension, nanosuspension; 100 mg/mL)) | SMILES | carbonic anhydrase inhibition [1] | adverse reactions at the injection sites [3] | plasma concentrations, microsuspension compared with nanosuspension ([4]; early time points (up to 234 hr)) | plasma concentration levels of the solution formulation compared with the suspensions ([4]; solution in 90% NMP/10% Solutol HS15, early time points) | adverse reactions at the injection sites ([4]; three formulations) | rate of genital HSV shedding (genital HSV; at high doses, vs placebo) | number of days with lesions (genital HSV; men and women with genital herpes) |
| --- | --- | --- | --- | --- | --- | --- | --- | --- | --- |
| at least 220 days |  | Cc1nc(N2CCCN(c3ccc(-c4cc(F)ccc4F)cc3)C2=O)sc1S(N)(=O)=O [Compound 1, 2-(3-(2′,5′-difluoro-[1,1′-biphenyl]-4-yl)-2-oxotetrahydropyrimidin-1(2H)-yl)-4-methylthiazole-5-sulfonamide] | no or low levels of carbonic anhydrase inhibition | no adverse reactions observed |  |  |  |  |  |
|  | Prolonged exposure was achieved | Cc1nc(N(C)C(=O)Cc2ccc(-c3ccccn3)cc2)sc1S(N)(=O)=O [pritelivir, N-methyl-N-(4-methyl-5-sulfamoyl-1,3-thiazol-2-yl)-2-[4-(pyridin-2-yl)phenyl]acetamide] |  |  | higher plasma concentrations of pritelivir were obtained from the microsuspension | highest plasma concentration levels at the early time points | no adverse reactions were observed | reduced the rate of genital HSV shedding | reduced the number of days with lesions |
